Experiments:
non-traumatised rats = test: ICP, MABP and CPP in anaesthetised non-traumatised rats; type: in vivo, rat; conditions: i.v. 0.5 mg/kg/min during 10 minutes, followed by 0.1 mg/kg/min during 50 min
Method: The effect of Compound 2, Compound 1 and Racemate (comp. 1 and comp. 2) on ICP, MABP and CPP was tested in anaesthetised non-traumatised rats. The compounds were administered i.v. and the same dose was given as in traumatized rats (0.5 mg/kg/min during 10 minutes, followed by 0.1 mg/kg/min during 50 min).

rat brain = test: Near-infrared spectroscopy (NIRS) of the rat brain: brain hemoglobin concentration and oxygenation after moderate head injury; type: in vivo; conditions: 24 h after moderate head injury; i.v. 0.5 mg/kg.min 10 min then 0.1 mg/kg.min 45 min
Excerpt: Near-infrared spectroscopy (NIRS) of the rat brain ‘in vivo’ allows to quantify non-invasively saturation of brain haemoglobin with oxygen (HbSat) and total brain haemoglobin concentration ([HbTot]). The latter is a measure for cerebral blood volume (CBV). Changes in the redox state of the mitochondrial enzyme cytochrome oxidase (CytOx), an indicator for tissue oxygenation, can also be monitored.
HbSat is not affected by compound 1 and the racemate (Comp. 1 and Comp. 2).

Sprague-Dawley rats [1] = test: Changes in relevant physiological variables during treatment after severe CHI in rats; type: in vivo, rat; conditions: median average change over entire treatment period, % change of initial value; 0.5 mg/kg/min 10 min then 0.1 mg/kg/min 50 min, started 20 min after severe CHI; n = 10
Excerpt: (§1) A clinically relevant rat model for traumatic brain injury was used to test the compounds according to the invention. This model mimics several clinical features of traumatic brain injury, such as increased ICP, decreased cerebral perfusion pressure, morphologic alterations including diffuse axonal injury, neuronal necrosis and contusion, impairment of autoregulation of cerebral blood flow and reduction of brain oxygenation and was applied for screening drugs with ICP-lowering effects. Trauma was induced in intubated, isoflurane anesthetized (1.5% isoflurane in a mixture of 30% O2 and 70% N2O) Sprague-Dawley rats (380-400 g) stereotaxically positioned on a table mounted on 4 springs. A 400 g steel cylinder, protected with a 9 mm diameter silicon disc, was dropped on the unprotected skull from a height of either 70 cm or 50 cm (respectively ‘severe’ and ‘moderate’ head injury). The impact area was centered between bregma and lamda. ICP was recorded using a Codman microsensor probe inserted in the parietal cortex. In both severe and moderate head injuries the ICP increased immediately after trauma and remained elevated for several days. The severe head injury mode was used for the evaluation of pharmacological effects immediately after trauma (screening procedure). When survival and recovery from anesthesia was envisaged, the moderate head injury mode was applied. In pharmacological studies, animals with a pathological ICP between 12.5 and 35 mm Hg were included. The changes in ICP, mean arterial blood pressure (MABP) and cerebral perfusion pressure CPP (=[…]) were expressed as percentage of the initial value at onset of the treatment. Screening procedure: On a weekly base, 4 treated groups of 3 rats were compared with 3 saline treated animals. Since conventional statistical methods require a larger amount of animals, a sequential procedure was used. Sequential methods operate in different stages. At each stage, a group of animals was selected as homogeneous as possible. Animals were randomly allocated to either drugs or saline. The procedure allowed to make the decision of rejecting the drug, accepting the drug as active or to continue with a new group of animals in a next stage. Given the biological relevant level of activity that must be detected, the expected fraction of false positive and negative results was known and fixed. A sequential two-sample grouped rank test was used. […] Despite the variability in the individual data, the procedure consistently accepted reference treatments such as mannitol as active, while controls were rejected.
Treatment was started at 20 min after severe head injury and involved administering a dose of 0.5 mg/kg/min during 10 minutes, followed by 0.1 mg/kg/min during 50 min.

Sprague-Dawley rats [2] = test: Continuous infusion of 0.1 mg/kg.min in the rat CHI model; type: in vivo
Excerpt: as §1
The significant effect of compound 2 on MABP is much less pronounced when the compound is given at a continuous infusion of 0.1 mg/kg.min. […]

Sprague-Dawley rats [3] = test: Influence of anaesthesia on effects on ICP and MABP 24 h after moderate trauma; type: in vivo, rat; conditions: i.v. infusion 0.1 mg/kg.min 30 min, medians, n=6
Excerpt: as §1
The effects of treatment with Compound 2 (i.v. infusion at a dose of 0.1 mg/kg.min during 30 min) at 24 h after moderate trauma were studied using different anesthetics (isoflurane, chloralhydrate, pentobarbital). […]

traumatized rats = test: Repeated application on elevated ICP in traumatized rats; type: in vivo, rat; conditions: mannitol i.v. 0.125 g/kg/min, same time windows; FIG. 3
Method: Compound 1 was given 2 times with intermittent periods of 20 min at a i.v. dose of 1 mg/kg/min during 10 min, starting a first time 20 min after induction of severe head injury.
Mannitol was given i.v. in the same time windows as Compound 1 at a dose of 0.125 g/kg/min. The control animals received the solvent (containing 10% HP-β-CD, pH 4) only.
This effect is amplified after termination of each, infusion period.

Sprague-Dawley rats [4] = test: Closed Head Injury (CHI) model, screening procedure (severe head injury); type: in vivo, rat
Excerpt: as §1

[5] = chloralhydrate 400 mg/kg i.p. anesthesia
[6] = pentobarbital 60 mg/kg i.p. anesthesia

Structure (SMILES): Cc1nc2ccccn2c(=O)c1CCN1CCC(C2(C)c3ccccc3CCn3c2nc2ccccc23)CC1 (stereo not drawn) (hydrate or solvate) [Compound 6]
- melting point: 133.9 °C

Structure (SMILES): Cc1nc2n(C)c3ccccc3n2c(=O)c1CCN1CCC(C2c3ccccc3CCn3c2nc2ccccc23)CC1Cc1ccccc1 (racemic) [Racemate (comp. 1 and comp. 2), pyrimido[1,2-α]benzimidazol-4(10H)-one, 3-[2-[4-(11,12-dihydro-6H-benzimidazo[2,1-b][3]benzazepin-6-yl)-2-(phenylmethyl)-1-piperidinyl]ethyl]-2,10-dimethyl (E)-2-butenedioate (2:3) hydrate (1:1)]
- effect on ICP, MABP and CPP (non-traumatised rats): comparable with those obtained in the traumatized animals
- effect on saturation of brain haemoglobin with oxygen (HbSat) (rat brain): not affected
- effect on total brain haemoglobin concentration [HbTot] (rat brain): do not have a significant effect
- CPP (%) (Sprague-Dawley rats [1]): 7.5%
- ETCO2 (%) (Sprague-Dawley rats [1]): 2.4%
- Heart rate(%) (Sprague-Dawley rats [1]): 5.6%
- ICP (%) (Sprague-Dawley rats [1]): −19.1%
- MABP (%) (Sprague-Dawley rats [1]): 0.6%
- Resp. rate(%) (Sprague-Dawley rats [1]): 9.6%

Structure (SMILES): Cc1nc2n(C)c3ccccc3n2c(=O)c1CCN1CCC(C2c3ccccc3CCn3c2nc2ccccc23)CC1Cc1ccccc1 (single isomer, unassigned) [Compound 2, (A)[(2α,4β)(A)] 3-[2-(4-(11,12-dihydro-6H-benzimidazo [2,1-b][3]benzazepin-6-yl)-2-(phenylmethyl)-1-piperidinyl]ethyl]-2,10-dimethyl-pyrimido[1,2-a]benzimidazol-4(10H)-one]
- effect on ICP, MABP and CPP (non-traumatised rats): comparable with those obtained in the traumatized animals
- maximal reduction of ICP versus infusion preceded by loading dose of 5 mg/kg over 10 min (Sprague-Dawley rats [2]): comparable
- time required to obtain maximal reduction of ICP (median) (Sprague-Dawley rats [2]): 30 min
- increases in MABP observed (Sprague-Dawley rats [2]; larger increases not observed): ≤ 20%
- median MABP increase at the end of the infusion (Sprague-Dawley rats [2]; n=6): 9%
- effect on saturation of brain haemoglobin with oxygen (HbSat) (rat brain): small but statistically significant reduction
- effect on total brain haemoglobin concentration [HbTot] (rat brain): do not have a significant effect
- CPP (%) (Sprague-Dawley rats [1]): 24.2%
- ETCO2 (%) (Sprague-Dawley rats [1]): −4.4%
- Heart rate(%) (Sprague-Dawley rats [1]): −9.6%
- ICP (%) (Sprague-Dawley rats [1]): −15.3%
- MABP (%) (Sprague-Dawley rats [1]): 18.8%
- Resp. rate(%) (Sprague-Dawley rats [1]): 6.6%
- ICP decreases to % of initial value (Sprague-Dawley rats [3]; [5]): 75 % of initial value
- MABP increases to % of initial value (Sprague-Dawley rats [3]; [5]): 110 % of initial value
- ICP decreases to % of initial value (Sprague-Dawley rats [3]; [6]): 64 % of initial value
- MABP increase up to % of initial value at the end of the infusion (Sprague-Dawley rats [3]; [6]): 141 % of initial value

Structure (SMILES): Cc1nc2sccn2c(=O)c1CCN1CCC(=C2c3ccccc3CCn3c2nc2ccccc23)CC1 [Compound 5, 6-[2-[4-(11,12-dihydro-6H-benzimidazo [2,1-b][3]benzazepin-6-ylidene)-1-piperidinyl]ethyl]-7-methyl-5H-thiazolo [3,2-a]pyrimidin-5-one]
- melting point: 224.9 °C

Structure (SMILES): Cc1nc2sccn2c(=O)c1CCN1CCC(C2c3ccccc3C(c3ccccc3)Cn3c2nc2ccccc23)CC1Cc1ccccc1 (stereo not drawn) [Compound 7]
- melting point: 213.2 °C

Structure (SMILES): Cc1nc2sccn2c(=O)c1CCN1CCC(=C2c3ccccc3C=Cn3c2nc2ccccc23)CC1 [Compound 8, 6-[2-[4-(6H-benzimidazo[2,1-b][3]benzazepin-6-ylidene)-1-piperidinyl]ethyl]-7-methyl-5H-thiazolo[3,2-a]pyrimidin-5-one]
- melting point: 178.8 °C

Structure (SMILES): OC[C@@H](O)[C@@H](O)[C@H](O)[C@H](O)CO [Mannitol]
- effect on ICP during infusion (traumatized rats): lowering of ICP
- effect on blood pressure (traumatized rats): increase in blood pressure during each infusion followed by a decrease in blood pressure after termination of each treatment
- mean reduction of ICP (Sprague-Dawley rats [4]; i.v. mannitol 3 g over 45 min): about 20%
- Decision (based upon sequential statistical evaluation) (Sprague-Dawley rats [4]; severe CHI rats, mannitol infusion of 67 mg/kg/min for 45 min, 5 separate tests): active
- Delta %: average change of the relative ICP from baseline over the treatment period (Sprague-Dawley rats [4]; severe CHI rats, mannitol infusion of 67 mg/kg/min for 45 min, 5 separate tests, listed as Mannitol^1, 67 mg/kg): −21.7%
- Delta %: average change of the relative ICP from baseline over the treatment period (Sprague-Dawley rats [4]; severe CHI rats, mannitol infusion of 67 mg/kg/min for 45 min, 5 separate tests, listed as Mannitol^2, 67 mg/kg): −22.1%
- Delta %: average change of the relative ICP from baseline over the treatment period (Sprague-Dawley rats [4]; severe CHI rats, mannitol infusion of 67 mg/kg/min for 45 min, 5 separate tests, listed as Mannitol^3, 67 mg/kg): −13.0%
- Delta %: average change of the relative ICP from baseline over the treatment period (Sprague-Dawley rats [4]; severe CHI rats, mannitol infusion of 67 mg/kg/min for 45 min, 5 separate tests, listed as Mannitol^4, 67 mg/kg): −19.3%
- Delta %: average change of the relative ICP from baseline over the treatment period (Sprague-Dawley rats [4]; severe CHI rats, mannitol infusion of 67 mg/kg/min for 45 min, 5 separate tests, listed as Mannitol^5, 67 mg/kg): −19.9%
